Measurements: patent publication US11806393B2, “Flavivirus peptide sequences, epitopes, and methods and uses thereof” (priority 2017, dated 2023)

The sequences below were run on CD8+ T cells (assay: IFNγ ELISPOT, ZIKV-infected Ifnar-/- HLA-B*0702 transgenic mice). Conditions: HLA-B*0702 mice, 7 days after 1×10^2 FFU ZIKV FSS13025.
Format: cell-based, mouse
Protocol: (§1) Two ZIKV strains, MR766 (Uganda, 1947) and FSS13025 (Cambodia, 2010), were obtained from the World Reference Center for Emerging Viruses and Arboviruses (WRCEVA). The mouse-adapted DENV2 strain S221 is a triple-plaque purified clone derived from DENV2 D2S1038. Both ZIKV and DENV2 were amplified in C6/36 mosquito cells, and viral titers were measured using baby hamster kidney (BHK)-21 cell-based focus forming assay (FFA). For epitope screening, 5-week old mice (female or male) were infected retro-orbitally (R.O.) with either 1×102 FFU of ZIKV FSS13025 or ZIKV MR766, or 2×10^4 FFU of DENV2 S221 in 200 μl 10% FBS/PBS. Seven days after infection, CD8^+ T cells were isolated from splenocytes and used for ELISPOT assay, while the splenocytes were directly used for ICS assay. Additionally, 5-week old mice were inoculated I.P. with 2×10^3 FFU of DENV2 S221 for 4 weeks.
(§2) CD8^+ T cells were isolated from splenocytes using magnetic bead positive selection (Miltenyi Biotec, Germany) 7 days after virus infection. 2×10^5 CD8^+ T cells were stimulated with 1×10^5 LPS-blasts loaded with 10 μg of individual peptide in 96-well flat-bottom plates (IMMOBILON™-P; Millipore, Bedford, Mass.) that were coated with anti-IFNγ mAb (clone AN18; Mabtech, Stockholm, Sweden) in triplicate. Concanavalin A (ConA) was used as positive control. After 20 hours of incubation, biotinylated anti-mouse IFNγ mAb (R4-6A2; Mabtech), followed by ABC peroxidase (Vector Laboratories, Burlingame, Calif., USA) and then 3-amino-9-ethylcarbazole (Sigma-Aldrich, St. Louis, Mo., USA) were added into the wells. […] A peptide inducing a magnitude of >500 SFCs/10^6 CD8^+ T cells was considered as an immunodominant peptide.
Two independent experiments performed in triplicate were averaged and the error bars represent the SEM. The data are expressed as the mean number of spot forming cells (SFC) per 10^6 CD8^+ T cells. The criteria for positivity were net SFC per 10^6 cells of >20, and a stimulation index of >2.0 when compared with the negative control. Dotted lines represent the cutoff value. * Indicates a positive response. […] ConA denotes Concanavalin A.
In the case of RPGAFCIKVL [FSS/MR-NS4B426-435], the “SFC/10^6 CD8+ T cells, FSS13025” value is reported as 1223 SFC/10^6 CD8+ T cells.
In the case of RPRVCTKEEF [FSS/MR-NS5140-149], the “SFC/10^6 CD8+ T cells, FSS13025” value is reported as 162 SFC/10^6 CD8+ T cells.
In the case of SPRLDVAL [FSS/MR-NS2B68-75], the “SFC/10^6 CD8+ T cells, FSS13025” value is reported as 963 SFC/10^6 CD8+ T cells.
In the case of TPRESMLLAL [FSS/MR-NS2A89-99], the “SFC/10^6 CD8+ T cells, FSS13025” value is reported as 807 SFC/10^6 CD8+ T cells.

Same assay, conditions: HLA-B*0702 mice, 7 days after 1×10^2 FFU ZIKV MR766
In the case of RPGAFCIKVL [FSS/MR-NS4B426-435], the “SFC/10^6 CD8+ T cells, MR766” value is reported as 1362 SFC/10^6 CD8+ T cells.
For RPRVCTKEEF [FSS/MR-NS5140-149], the “SFC/10^6 CD8+ T cells, MR766” value was 311 SFC/10^6 CD8+ T cells.
For SPRLDVAL [FSS/MR-NS2B68-75], the “SFC/10^6 CD8+ T cells, MR766” value was 993 SFC/10^6 CD8+ T cells.
With TPRESMLLAL [FSS/MR-NS2A89-99] the “SFC/10^6 CD8+ T cells, MR766” value was 823 SFC/10^6 CD8+ T cells.

Same assay, conditions: HLA-B*0702 mice; immunodominant: >500 SFCs/10^6 CD8+ T cells; shared by both ZIKV strains
With RPGAFCIKVL [FSS/MR-NS4B426-435] the “immunodominance in IFNγ ELISPOT” value was “most immunodominant epitope”.
With SPRLDVAL [FSS/MR-NS2B68-75] the “immunodominance in IFNγ ELISPOT” value was “immunodominant”.
With TPRESMLLAL [FSS/MR-NS2A89-99] the “immunodominance in IFNγ ELISPOT” value was “immunodominant”.

The sequences below were run on CD8+ T cells (assay: IFNγ ICS, DENV2 S221-infected Ifnar-/- HLA-B*0702 transgenic mice). Conditions: HLA-B*0702 mice, 7 days after DENV2 S221, ICS.
Format: cell-based, mouse
Protocol: as §1
(§3) Spleens were harvested from virus-infected, mock-immunized, or peptide-immunized mice. 1×10^6 splenocytes were plated in each well of 96-well U-bottom plates and stimulated with individual peptide (10 μg crude peptide or 1 μg pure peptide per well) for 6 hours. Five hours before the end of incubation, Brefeldin A (GolgiPlug; BD Biosciences) and PE-conjugated anti CD107a mAb (clone 1D4B, eBioscience) were added to the cells. Splenocytes stimulated with PMA-ionomycin were used as the positive control, while cells without any stimulation were the negative control. […] Samples were run using an LSR™ II (BD Biosciences) and analyzed using FLOWJO™ software X 10.0.7 (Tree Star, Ashland, Oreg.).
(§4) The following results are with respect to FIG. 14A and FIG. 14B, where Ifnar^−/− HLA-B*0702 transgenic mice were infected R.O. with 2×10^4 FFU of DENV2 strain S221 for 7 days. CD8^+ T cells isolated from splenocytes were stimulated with each of the 37 ZIKV epitopes identified via IFNγELISPOT to perform (FIG. 14A) IFNγELISPOT and (FIG. 14B) ICS assay. Data represent the average of two independent IFNγELISPOT experiments and two independent ICS experiments (n=7 mice) and are expressed as mean±SEM. Dotted line corresponds to the cutoff value. *, P<0.05.
With RPGAFCIKVL [FSS/MR-NS4B426-435] the “% IFNγ+ CD8+ T cells, S221” value was “(0.3%)”.
For RPRVCTKEEF [FSS/MR-NS5140-149], the “% IFNγ+ CD8+ T cells, S221” value was 0.28%.

Same assay, conditions: HLA-B*0702 mice, DENV2 S221, 7 days
In the case of RPGAFCIKVL [FSS/MR-NS4B426-435], the “ZIKV/DENV cross-reactivity in DENV2-infected mice (IFNγ ELISPOT and IFNγ ICS)” value is reported as “positive in both IFNγ ELISPOT and IFNγICS assays”.

These sequences were tested on CD44+CD62L- CD8+ T cells (assay: ICS, peptide-immunized Ifnar-/- HLA-B*0702 mice challenged with ZIKV). Conditions: mice immunized with the 3 ZIKV immunodominant epitopes, day 3 after ZIKV challenge.
Format: cell-based, mouse
Text: Two HLA-B*0702-binding ZIKV-specific peptides (FSS-NS2A133-141(SEQ ID NO: 41) and FSS/MR766-NS2B68-75 (SEQ ID NO: 45)) and four ZIKV/DENV cross-reactive peptides (FSS/MR766-NS4B426-435 (SEQ ID NO: 60), FSS/MR766-NS2A75-84 (SEQ ID NO: 39), FSS/MR766-NS3206-215 (SEQ ID NO: 47), and FSS/MR766-NS3574-582 (SEQ ID NO: 52)) were chosen for synthesis. Five HLA-A*0101-binding peptides (FSS/MR-E159-167 (SEQ ID NO: 70), FSS/MR-E195-203 (SEQ ID NO: 71), FSS/MR-NS123-31 (SEQ ID NO: 74), FSS/MR-NS4B231-239 (SEQ ID NO: 77), and FSS/MR-NS5509-517 (SEQ ID NO: 79)) were chosen for synthesis. Mice (both female and male; 5-6 weeks of age) were immunized subcutaneously with a mixture of HCV helper peptide (100 μg/mouse) and 3 or 4 HLA-B*0702-binding peptides (50 μg/peptide/mouse) emulsified in Complete Freund's Adjuvant (CFA). Mock group mice received the same immunization strategy but without any ZIKV-specific or ZIKV/DENV cross-reactive peptide. On the 21st day, mice were boosted with the same peptide mixtures emulsified in Incomplete Freund's Adjuvant (IFA). […] Three days post ZIKV infection mice were sacrificed, and serum and spleen were harvested. The splenocytes were used for ICS assay. After cardiac perfusion with PBS, brain was harvested. The levels of infectious ZIKV in serum and brain were measured using FFA.
as §3
Peptide groups received corresponding peptide immunizations as described in Materials and Methods. […] CD3^+CD8^+CD44^+CD62L− T cells were gated and the percentages of IFNγ^+ and/or TNFα^+ cells in a representative mouse from mock (FIG. 12A) and peptide (FIG. 12B) groups were determined by ICS. The levels of infectious ZIKV in sera and brains were measured via FFA. Data were expressed as mean±SEM. *, P<0.05; **, P<0.01; ***, P<0.001. Two-tailed Mann-Whitney test.
In the case of RPGAFCIKVL [FSS/MR-NS4B426-435], the “percentage of IFNγ-producing cells among antigen experienced (CD44+CD62L-) CD8+ T cells” value is reported as 1.63±0.76%.
For SPRLDVAL [FSS/MR-NS2B68-75], the “percentage of IFNγ-producing cells among antigen experienced (CD44+CD62L-) CD8+ T cells” value was 0.61±0.47%.

Same assay, conditions: mice immunized with the 4 ZIKV/DENV cross-reactive peptides, day 3 after ZIKV challenge
For RPGAFCIKVL [FSS/MR-NS4B426-435], the “percentage of epitope-specific cells among antigen experienced (CD44+CD62L-) CD8+ T cells” value was 1.52±0.42%.

What follows are sequences tested on CD8+ T cells (assay: IFNγ ELISPOT, DENV2 S221-infected Ifnar-/- HLA-B*0702 transgenic mice). Conditions: HLA-B*0702 mice, 7 days after 2×10^4 FFU DENV2 S221.
Format: cell-based, mouse
Protocol: as §1, §2, §4
With RPGAFCIKVL [FSS/MR-NS4B426-435] the “SFC/10^6 CD8+ T cells, S221” value was 90 SFC/10^6 CD8+ T cells.
TPRESMLLAL [FSS/MR-NS2A89-99] was tested, and the “SFC/10^6 CD8+ T cells, S221” value was 55 SFC/10^6 CD8+ T cells.

The sequences below were run on CD3+CD8+ T cells (assay: IFNγ ICS, ZIKV-infected Ifnar-/- HLA-B*0702 transgenic mice). Conditions: HLA-B*0702 mice, 7 days after ZIKV FSS13025, ICS.
Format: cell-based, mouse
Protocol: as §1, §3
Data represent the average of two independent experiments and are expressed as mean±SEM. *, P<0.05; **, P<0.01; Two-tailed Mann-Whitney test. P/I denotes PMA/ionomycin.
RPGAFCIKVL [FSS/MR-NS4B426-435] was tested, and the “% IFNγ+ CD8+ T cells, FSS13025” value was “(2.28%)”.
With SPRLDVAL [FSS/MR-NS2B68-75] the “% IFNγ+ CD8+ T cells, FSS13025” value was “(0.56%)”.
For TPRESMLLAL [FSS/MR-NS2A89-99], the “% IFNγ+ CD8+ T cells, FSS13025” value was “(0.56%)”.

Same assay, conditions: HLA-B*0702 mice, 7 days after ZIKV MR766, ICS
For RPGAFCIKVL [FSS/MR-NS4B426-435], the “% IFNγ+ CD8+ T cells, MR766” value was “(2.36%)”.
In the case of RPRVCTKEEF [FSS/MR-NS5140-149], the “% IFNγ+ CD8+ T cells, MR766” value is reported as “(0.24%)”.
In the case of SPRLDVAL [FSS/MR-NS2B68-75], the “% IFNγ+ CD8+ T cells, MR766” value is reported as “(0.77%)”.
In the case of TPRESMLLAL [FSS/MR-NS2A89-99], the “% IFNγ+ CD8+ T cells, MR766” value is reported as “(0.95%)”.

Same assay, conditions: ZIKV MR766-infected mice
In the case of SPRLDVAL [FSS/MR-NS2B68-75], the “simultaneous IFNγ and TNFα production by peptide-stimulated CD8+ T cells” value is reported as “stimulated simultaneous production of IFNγ and TNFα”.

Same assay, conditions: mice infected with either ZIKV FSS13025 or ZIKV MR766
In the case of RPGAFCIKVL [FSS/MR-NS4B426-435], the “simultaneous IFNγ and TNFα secretion by peptide-stimulated CD8+ T cells” value is reported as “simultaneously secreted both IFNγ and TNFα”.
For TPRESMLLAL [FSS/MR-NS2A89-99], the “simultaneous IFNγ and TNFα secretion by peptide-stimulated CD8+ T cells” value was “simultaneously secreted both IFNγ and TNFα”.
